Columns and labels:
[1] = target: Eukaryotic translation initiation factor 2-alpha kinase 1 (Homo sapiens) (UniProt Q9BQI3); experiment: Selectivity interaction (Ambit KINOMEscan and KiNATiv profiling in Jurkat cells) EUB0000090b EIF2AK1; type: cell-based; conditions: at 1 µM
[2] = target: SRSF protein kinase 2 (Homo sapiens) (UniProt P78362); experiment: Selectivity interaction (Kinase panel (Invitrogen)) EUB0000639a SRPK2; conditions: at 200 nM
[3] = target: T1, Inhibitor of nuclear factor kappa-B kinase subunit alpha (Homo sapiens) (UniProt O15111); experiment: Selectivity interaction (KinomeScan (DiscoverX)) EUB0001079a CHUK; conditions: at 1 µM
T1 sequence (whole entry): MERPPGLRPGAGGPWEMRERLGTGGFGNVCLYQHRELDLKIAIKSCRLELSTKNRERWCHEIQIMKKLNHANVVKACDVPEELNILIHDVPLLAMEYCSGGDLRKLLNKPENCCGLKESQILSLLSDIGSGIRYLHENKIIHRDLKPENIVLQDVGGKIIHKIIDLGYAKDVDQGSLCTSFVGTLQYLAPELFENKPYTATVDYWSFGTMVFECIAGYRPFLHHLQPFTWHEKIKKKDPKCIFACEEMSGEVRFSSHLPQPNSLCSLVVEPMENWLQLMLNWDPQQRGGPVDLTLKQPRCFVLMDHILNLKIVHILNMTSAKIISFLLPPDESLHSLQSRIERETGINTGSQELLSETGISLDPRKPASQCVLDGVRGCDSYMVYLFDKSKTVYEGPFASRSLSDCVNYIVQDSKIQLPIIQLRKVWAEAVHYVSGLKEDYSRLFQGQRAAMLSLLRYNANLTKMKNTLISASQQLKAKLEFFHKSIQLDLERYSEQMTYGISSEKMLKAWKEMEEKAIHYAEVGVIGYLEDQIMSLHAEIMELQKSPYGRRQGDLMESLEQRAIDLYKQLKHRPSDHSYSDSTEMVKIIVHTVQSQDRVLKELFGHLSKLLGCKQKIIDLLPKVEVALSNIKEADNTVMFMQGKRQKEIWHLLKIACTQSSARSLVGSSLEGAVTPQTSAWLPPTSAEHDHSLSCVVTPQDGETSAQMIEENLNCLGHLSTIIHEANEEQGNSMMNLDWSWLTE

[4] = target: Protein polybromo-1 (Homo sapiens) (UniProt Q86U86); experiment: Selectivity interaction (Human bromodomain panel (DSF assay)) EUB0000233b PBRM1
Protein polybromo-1 (Homo sapiens), sequence (Q86U86 whole entry): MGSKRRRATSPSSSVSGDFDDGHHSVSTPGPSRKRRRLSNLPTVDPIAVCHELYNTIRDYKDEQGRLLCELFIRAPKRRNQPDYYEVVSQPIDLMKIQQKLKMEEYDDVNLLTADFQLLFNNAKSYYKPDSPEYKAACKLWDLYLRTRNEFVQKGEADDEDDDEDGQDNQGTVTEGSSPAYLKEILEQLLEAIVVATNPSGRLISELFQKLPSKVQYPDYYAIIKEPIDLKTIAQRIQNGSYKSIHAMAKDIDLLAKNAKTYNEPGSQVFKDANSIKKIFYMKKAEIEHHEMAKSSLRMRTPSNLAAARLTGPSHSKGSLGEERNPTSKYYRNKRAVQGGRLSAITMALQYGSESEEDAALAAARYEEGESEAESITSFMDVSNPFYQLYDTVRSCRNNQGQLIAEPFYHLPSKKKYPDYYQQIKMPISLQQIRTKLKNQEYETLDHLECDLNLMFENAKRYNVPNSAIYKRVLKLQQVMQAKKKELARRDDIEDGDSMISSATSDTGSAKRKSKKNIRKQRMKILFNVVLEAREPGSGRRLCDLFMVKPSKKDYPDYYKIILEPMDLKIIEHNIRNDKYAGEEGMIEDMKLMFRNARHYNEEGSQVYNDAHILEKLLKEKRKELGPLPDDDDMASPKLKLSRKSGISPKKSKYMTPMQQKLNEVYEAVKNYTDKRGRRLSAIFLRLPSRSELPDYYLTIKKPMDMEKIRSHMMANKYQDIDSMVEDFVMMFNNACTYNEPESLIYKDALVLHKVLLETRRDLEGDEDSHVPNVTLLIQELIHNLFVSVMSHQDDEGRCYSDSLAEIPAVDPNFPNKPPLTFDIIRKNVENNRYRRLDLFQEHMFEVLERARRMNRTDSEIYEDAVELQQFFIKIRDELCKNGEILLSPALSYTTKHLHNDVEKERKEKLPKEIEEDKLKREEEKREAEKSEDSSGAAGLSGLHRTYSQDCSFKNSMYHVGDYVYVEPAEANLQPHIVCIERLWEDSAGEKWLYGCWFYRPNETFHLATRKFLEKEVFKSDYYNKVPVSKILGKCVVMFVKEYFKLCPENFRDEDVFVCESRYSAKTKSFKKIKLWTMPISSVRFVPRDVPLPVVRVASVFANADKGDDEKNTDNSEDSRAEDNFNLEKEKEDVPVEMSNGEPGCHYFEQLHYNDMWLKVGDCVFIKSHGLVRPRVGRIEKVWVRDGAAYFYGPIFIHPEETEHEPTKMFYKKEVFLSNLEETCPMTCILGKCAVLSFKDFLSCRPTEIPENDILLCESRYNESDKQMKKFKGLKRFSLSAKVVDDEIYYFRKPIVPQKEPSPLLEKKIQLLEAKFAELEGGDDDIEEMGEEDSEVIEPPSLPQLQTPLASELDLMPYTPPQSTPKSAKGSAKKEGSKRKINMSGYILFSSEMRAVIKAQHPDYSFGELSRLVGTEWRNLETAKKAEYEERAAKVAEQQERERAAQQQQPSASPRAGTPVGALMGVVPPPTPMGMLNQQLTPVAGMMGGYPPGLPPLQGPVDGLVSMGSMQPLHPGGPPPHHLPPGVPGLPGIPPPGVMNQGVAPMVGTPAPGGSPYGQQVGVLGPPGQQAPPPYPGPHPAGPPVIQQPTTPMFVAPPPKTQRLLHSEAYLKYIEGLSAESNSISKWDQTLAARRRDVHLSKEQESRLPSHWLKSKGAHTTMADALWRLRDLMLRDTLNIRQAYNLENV

[5] = target: Serine/threonine-protein kinase N2 (Homo sapiens, UniProt Q16513); experiment: Selectivity interaction (Upstate Kinase Profiler service (Millipore)) EUB0000056c PKN2; conditions: at 1 µM
[6] = target: RAC-alpha serine/threonine-protein kinase (Homo sapiens, UniProt P31749); experiment: Selectivity interaction (Upstate Kinase Profiler service (Millipore)) EUB0000056c AKT1; conditions: at 1 µM
RAC-alpha serine/threonine-protein kinase, sequence (P31749 whole entry): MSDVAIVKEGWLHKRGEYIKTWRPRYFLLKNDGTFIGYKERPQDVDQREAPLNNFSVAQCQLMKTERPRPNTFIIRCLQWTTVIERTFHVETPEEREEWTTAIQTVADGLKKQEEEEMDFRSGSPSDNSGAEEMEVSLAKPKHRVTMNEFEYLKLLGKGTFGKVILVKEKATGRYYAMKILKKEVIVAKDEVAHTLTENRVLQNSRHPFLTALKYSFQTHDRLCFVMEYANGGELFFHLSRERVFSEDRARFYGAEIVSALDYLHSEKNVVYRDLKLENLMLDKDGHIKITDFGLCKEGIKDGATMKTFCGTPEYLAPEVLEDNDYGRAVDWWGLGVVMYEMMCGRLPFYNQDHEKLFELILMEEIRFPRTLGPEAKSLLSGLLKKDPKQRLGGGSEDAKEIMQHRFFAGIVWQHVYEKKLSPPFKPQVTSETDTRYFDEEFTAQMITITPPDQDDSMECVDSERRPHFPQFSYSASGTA

[7] = target: Serine/threonine-protein kinase MRCK gamma (Homo sapiens) (UniProt Q6DT37); experiment: Selectivity interaction (KinomeScan (DiscoverX)) EUB0000045b CDC42BPG
Serine/threonine-protein kinase MRCK gamma (Homo sapiens), sequence (Q6DT37 whole entry): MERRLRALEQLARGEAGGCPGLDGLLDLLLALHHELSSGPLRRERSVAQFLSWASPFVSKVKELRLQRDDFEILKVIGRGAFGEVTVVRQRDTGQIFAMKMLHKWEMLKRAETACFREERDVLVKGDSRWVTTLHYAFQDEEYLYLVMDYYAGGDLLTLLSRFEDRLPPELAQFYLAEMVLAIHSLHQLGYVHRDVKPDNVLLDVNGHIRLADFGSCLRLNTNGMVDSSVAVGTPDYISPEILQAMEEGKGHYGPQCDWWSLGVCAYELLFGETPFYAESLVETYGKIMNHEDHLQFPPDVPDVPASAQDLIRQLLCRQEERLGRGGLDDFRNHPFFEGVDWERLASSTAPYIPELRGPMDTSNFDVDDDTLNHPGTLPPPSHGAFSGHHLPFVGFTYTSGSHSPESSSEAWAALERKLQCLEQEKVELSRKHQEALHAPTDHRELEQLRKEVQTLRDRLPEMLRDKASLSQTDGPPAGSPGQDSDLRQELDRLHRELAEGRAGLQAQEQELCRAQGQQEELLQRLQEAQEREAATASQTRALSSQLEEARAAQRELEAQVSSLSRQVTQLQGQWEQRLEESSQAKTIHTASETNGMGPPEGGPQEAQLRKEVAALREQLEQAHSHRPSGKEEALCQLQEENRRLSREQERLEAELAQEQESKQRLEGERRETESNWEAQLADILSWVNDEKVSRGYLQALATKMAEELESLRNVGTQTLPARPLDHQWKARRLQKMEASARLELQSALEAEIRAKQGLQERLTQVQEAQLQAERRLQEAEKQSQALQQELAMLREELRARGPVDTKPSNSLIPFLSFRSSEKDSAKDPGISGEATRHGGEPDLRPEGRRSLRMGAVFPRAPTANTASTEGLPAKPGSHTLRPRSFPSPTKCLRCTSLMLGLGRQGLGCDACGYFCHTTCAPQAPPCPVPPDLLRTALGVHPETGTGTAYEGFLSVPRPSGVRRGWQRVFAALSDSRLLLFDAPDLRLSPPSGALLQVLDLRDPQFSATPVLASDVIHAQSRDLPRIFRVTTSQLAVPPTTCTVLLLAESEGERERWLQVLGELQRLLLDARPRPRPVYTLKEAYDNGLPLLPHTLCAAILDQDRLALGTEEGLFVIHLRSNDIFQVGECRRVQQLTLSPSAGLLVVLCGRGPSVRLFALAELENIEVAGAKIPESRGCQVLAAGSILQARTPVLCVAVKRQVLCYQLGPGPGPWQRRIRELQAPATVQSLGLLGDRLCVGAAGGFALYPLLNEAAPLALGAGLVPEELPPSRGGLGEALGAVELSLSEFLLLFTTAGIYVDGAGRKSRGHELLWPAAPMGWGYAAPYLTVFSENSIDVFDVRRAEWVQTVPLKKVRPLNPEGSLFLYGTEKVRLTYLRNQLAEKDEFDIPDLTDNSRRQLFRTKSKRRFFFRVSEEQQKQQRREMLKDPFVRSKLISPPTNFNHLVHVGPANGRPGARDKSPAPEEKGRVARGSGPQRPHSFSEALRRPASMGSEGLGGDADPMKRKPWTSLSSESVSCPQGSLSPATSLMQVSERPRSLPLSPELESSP

[8] = target: T2, Serine/threonine-protein kinase D2 (Homo sapiens) (UniProt Q9BZL6); experiment: Selectivity interaction (KinomeScan (DiscoverX)) EUB0001619a PRKD2; conditions: at 1 µM
T2 sequence (whole entry): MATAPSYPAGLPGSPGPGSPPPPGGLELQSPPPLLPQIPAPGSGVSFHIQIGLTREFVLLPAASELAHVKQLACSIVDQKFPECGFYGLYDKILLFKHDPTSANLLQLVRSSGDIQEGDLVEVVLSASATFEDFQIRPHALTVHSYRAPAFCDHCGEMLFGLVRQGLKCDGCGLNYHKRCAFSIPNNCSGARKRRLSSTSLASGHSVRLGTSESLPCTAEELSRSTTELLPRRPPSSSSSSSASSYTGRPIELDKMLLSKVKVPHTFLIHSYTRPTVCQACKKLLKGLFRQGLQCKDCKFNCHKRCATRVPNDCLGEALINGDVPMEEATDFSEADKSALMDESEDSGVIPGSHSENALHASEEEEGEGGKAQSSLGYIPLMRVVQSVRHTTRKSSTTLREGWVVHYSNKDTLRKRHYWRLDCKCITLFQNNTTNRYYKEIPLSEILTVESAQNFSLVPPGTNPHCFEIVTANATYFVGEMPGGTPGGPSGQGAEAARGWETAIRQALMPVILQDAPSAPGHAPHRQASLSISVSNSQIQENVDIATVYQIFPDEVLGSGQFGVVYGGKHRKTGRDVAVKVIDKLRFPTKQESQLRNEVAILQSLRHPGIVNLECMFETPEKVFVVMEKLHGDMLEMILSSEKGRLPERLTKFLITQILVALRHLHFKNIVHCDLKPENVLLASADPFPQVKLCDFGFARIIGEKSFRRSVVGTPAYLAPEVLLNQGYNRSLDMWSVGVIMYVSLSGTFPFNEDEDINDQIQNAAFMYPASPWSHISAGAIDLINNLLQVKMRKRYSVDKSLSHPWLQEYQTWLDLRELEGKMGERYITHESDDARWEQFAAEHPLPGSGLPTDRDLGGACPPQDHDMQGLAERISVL

[9] = target: Serine/threonine-protein kinase 16 (Homo sapiens, UniProt O75716); experiment: Selectivity interaction (KinomeScan (DiscoverX)) EUB0000607a STK16; conditions: at 10 µM
Serine/threonine-protein kinase 16, sequence (O75716 whole entry): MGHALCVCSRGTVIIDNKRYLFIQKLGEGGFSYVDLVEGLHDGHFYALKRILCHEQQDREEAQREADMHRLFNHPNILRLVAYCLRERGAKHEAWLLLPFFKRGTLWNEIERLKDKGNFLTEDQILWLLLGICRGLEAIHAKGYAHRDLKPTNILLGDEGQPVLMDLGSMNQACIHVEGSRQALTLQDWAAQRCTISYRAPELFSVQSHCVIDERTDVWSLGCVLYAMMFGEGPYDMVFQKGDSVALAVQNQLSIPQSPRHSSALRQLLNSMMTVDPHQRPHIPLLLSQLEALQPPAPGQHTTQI

[10] = target: Cyclin-dependent kinase 7 (Homo sapiens, UniProt P50613); experiment: Selectivity interaction (Kinase panel (KiNativ target engagement assay in Jurkat cells)) EUB0001635a CDK7; type: cell-based; conditions: Selectivity number of off-targets 0.0, Selectivity number of targets 233.0, Source Knowledge https://www.sciencedirect.com/science/article/pii/S2451945619300674?via%3Dihub, at 1 µM
Cyclin-dependent kinase 7, sequence (P50613 whole entry): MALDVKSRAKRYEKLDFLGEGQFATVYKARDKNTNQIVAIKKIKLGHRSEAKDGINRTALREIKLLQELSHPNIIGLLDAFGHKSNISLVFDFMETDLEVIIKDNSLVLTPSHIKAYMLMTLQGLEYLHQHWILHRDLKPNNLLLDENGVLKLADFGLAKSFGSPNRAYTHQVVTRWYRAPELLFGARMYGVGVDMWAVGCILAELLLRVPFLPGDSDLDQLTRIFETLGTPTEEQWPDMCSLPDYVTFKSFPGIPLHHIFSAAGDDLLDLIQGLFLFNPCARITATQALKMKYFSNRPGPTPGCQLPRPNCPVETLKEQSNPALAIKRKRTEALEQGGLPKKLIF

PXR (NR1I2) = PXR (NR1I2) (Homo sapiens, UniProt O75469); experiment: Selectivity interaction (Panel of kinases, GPCRs, ion channels and transporters (enzymatic assay)) EUB0000223bCl NR1I2

SRSF protein kinase 2 (Homo sapiens), sequence (P78362 whole entry, looked up): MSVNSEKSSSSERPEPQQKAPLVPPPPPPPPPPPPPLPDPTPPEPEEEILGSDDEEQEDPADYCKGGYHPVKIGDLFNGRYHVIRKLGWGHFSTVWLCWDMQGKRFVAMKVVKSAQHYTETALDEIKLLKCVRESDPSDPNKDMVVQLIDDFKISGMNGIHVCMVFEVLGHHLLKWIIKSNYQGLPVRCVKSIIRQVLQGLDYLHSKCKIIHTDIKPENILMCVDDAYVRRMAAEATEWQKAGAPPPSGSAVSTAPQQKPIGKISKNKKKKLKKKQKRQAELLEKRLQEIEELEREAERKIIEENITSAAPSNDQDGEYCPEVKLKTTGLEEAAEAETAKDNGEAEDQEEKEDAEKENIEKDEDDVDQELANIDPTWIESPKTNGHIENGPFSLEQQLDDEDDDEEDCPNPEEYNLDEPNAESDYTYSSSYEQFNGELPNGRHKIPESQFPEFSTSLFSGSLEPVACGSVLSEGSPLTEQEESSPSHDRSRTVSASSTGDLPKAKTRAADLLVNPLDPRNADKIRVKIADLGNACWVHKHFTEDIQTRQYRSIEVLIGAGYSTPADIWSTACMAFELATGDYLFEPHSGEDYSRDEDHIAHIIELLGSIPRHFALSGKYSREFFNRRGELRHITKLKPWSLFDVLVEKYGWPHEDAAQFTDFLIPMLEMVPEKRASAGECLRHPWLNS

SMILES: CN(C)C/C=C/C(=O)Nc1ccc(C(=O)N2CCCC(Nc3ncc(Cl)c(-c4c[nH]c5ccccc45)n3)C2)cc1 (configuration not stated)
- % of control [1]: 84%

SMILES: CC[C@@H]1[C@H](F)C(=O)N[C@@H]1COc1nccc2cc(C(N)=O)c(OC)cc12 [ZIMLOVISERTIB]
- % of inhibition [2]: -1.85%

SMILES: Nc1cnc(N2CCc3cc(S(=O)(=O)Nc4c(F)cc(Cl)cc4F)cc(N4CCCC4=O)c32)nc1 [TP-020n]
- % of control [3]: 100%

SMILES: CN(C)CCCOc1ccc(-c2cc(NCCCn3cccn3)nc(S(C)(=O)=O)n2)cc1
- dTM [4]: < 2 K

SMILES: Cc1ccc(-c2ccc3c(ccc4sc5c(c43)NC[C@@H](C)NC5=O)n2)cn1
- % of inhibition [5]: -8%
- % of inhibition [6]: -3%

SMILES: C=CC(=O)Nc1cc(-n2c(=O)ccc3cnc4ccc(-c5ccc(NS(C)(=O)=O)cc5)cc4c32)ccc1C
- % of control ([7]; at 1 µM): 100%
- % of control ([7]; at 10 µM): 90%

SMILES: N#Cc1cccc(-c2c[nH]c3ncnc(N4CCOCC4)c23)c1
- % of control [8]: 100%

SMILES: CNC(=O)Nc1ccc(-c2nc(N3CC4CCC(C3)O4)c3cnn(C4CCC5(CC4)OCCO5)c3n2)cc1
- % of control [9]: 98%

SMILES: C=CC(=O)Nc1ccc(C(=O)Nc2[nH]nc3c2CN(C(=O)N[C@H](CN(C)C)c2ccccc2)C3(C)C)cc1
- % of engagement [10]: 95.5%

SMILES: COc1cc(C(=O)N2CC[C@@H](O)[C@@H](N)C2)cc2nc(-c3cc4ccccc4n3CC3CC3)n(C)c12
- XC50 (PXR (NR1I2)): > 50.1 µM
